Experimental data as given in ChEMBL document CHEMBL1131309, “Isoindol-1-one analogues of 4-(2'-methoxyphenyl)-1-[2'-[N-(2"-pyridyl)-p-iodobenzamido]ethyl]pipera zine (p-MPPI) as 5-HT1A receptor ligands” (J Med Chem, 1998).

Target: T1, 5-hydroxytryptamine receptor 1A (Rattus norvegicus, UniProt P19327)
T1 sequence (P19327 whole entry): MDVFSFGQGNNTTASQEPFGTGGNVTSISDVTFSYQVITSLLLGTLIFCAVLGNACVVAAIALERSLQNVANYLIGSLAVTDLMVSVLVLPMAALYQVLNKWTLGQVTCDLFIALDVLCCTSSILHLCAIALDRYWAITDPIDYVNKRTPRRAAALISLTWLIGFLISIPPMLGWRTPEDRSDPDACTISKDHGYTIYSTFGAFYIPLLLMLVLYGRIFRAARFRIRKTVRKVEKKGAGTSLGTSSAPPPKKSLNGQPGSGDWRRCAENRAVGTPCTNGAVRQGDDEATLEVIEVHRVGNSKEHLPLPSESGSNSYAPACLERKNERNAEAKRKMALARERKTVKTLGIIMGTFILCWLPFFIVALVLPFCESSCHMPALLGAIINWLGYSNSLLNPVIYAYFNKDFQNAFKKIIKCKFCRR
Description: In vitro binding affinity for 5-hydroxytryptamine 1A receptor in rat hippocampal membranes by [125I]-labeled agonist displacement.

Structure (SMILES)	Ki [nM]
COc1ccccc1N1CCN(CCN(C(=O)c2ccc(I)cc2)c2ccccn2)CC1	0.2
COc1ccccc1N1CCN(CCN2C(=O)c3cc(I)ccc3C2(O)c2ccccc2)CC1 (stereo unspecified)	0.65
COc1ccccc1N1CCN(CCN2C(=O)c3cc(N)ccc3C2(O)c2ccccc2)CC1 (stereo unspecified)	1.85

The next lines start with the values.

Ki [nM]	Structure (SMILES)
6.5	COc1ccccc1N1CCN(CCN2C(=O)c3ccccc3C2c2ccccn2)CC1 (stereo unspecified)
1.09	COc1ccccc1N1CCN(CCN2C(=O)CCC2c2ccc(Br)cc2)CC1 (stereo unspecified)
0.5	COc1ccccc1N1CCN(CCN2C(=O)c3ccccc3C2c2ccccc2)CC1 (stereo unspecified)
